Experiment: Inhibition of [3H]PDBu binding to murine brain PKC (protein kinase C)
Set-up: species or system Mus musculus

Row | IC50 [µM] | Compound
1 | > 1000 | CCCCCCCC(=O)OC1CC[C@H](/C=C/CO)CC1OC(=O)CCCCCCC (some centres undefined)
2 | > 1000 | CCCCCCCC(=O)OC1CC[C@H](CO)CC1OC(=O)CCCCCCC (stereo in doubt; 20a)
3 | 1000 | CCCCCCCC(=O)OC1CC[C@H](CO)CC1OC(=O)CCCCCCC (stereo in doubt; 20b)

Further lines, the compound ahead of its results:

Row | Compound | IC50 [µM]
4 | O=C(OC1CC[C@H](/C=C/CCO)CC1OC(=O)c1ccccc1)c1ccccc1 (some centres undefined) | > 1000
5 | O=C(OC1CC[C@H](/C=C/CO)CC1OC(=O)c1ccccc1)c1ccccc1 (some centres undefined) | > 1000
6 | CCCCCCCC(=O)OC[C@H](CO)OC(=O)CCCCCCC | 5
7 | CCCCCCCC(=O)OC1CC[C@H](/C=C/CCO)CC1OC(=O)CCCCCCC (some centres undefined) | > 1000
8 | O=C(OC1CC[C@H](CO)CC1OC(=O)c1ccccc1)c1ccccc1 (some centres undefined) | > 1000
9 | CCCCCCCCCCCCCC(=O)O[C@@H]1[C@@H](C)[C@@]2(O)[C@@H](C=C(CO)C[C@]3(O)C(=O)C(C)=C[C@@H]23)[C@@H]2C(C)(C)[C@]12OC(C)=O [PHORBOL MYRISTATE ACETATE] | 0.01
